Data from patent US20240139211A1, “METHODS AND COMPOSITIONS FOR TREATING AMYOTROPHIC LATERAL SCLEROSIS” (Amylyx Pharmaceuticals, Inc., priority 2022, published 2024).
Several values for one entry are separate records, joined by “and”; a condition that tells them apart may be missing. Equal values may be shown once.

Columns and labels:
OAT3 = molecular target: T1, OAT3 (Homo sapiens, UniProt Q8TCC7); assay: in vitro
T1 sequence (Q8TCC7 1-542): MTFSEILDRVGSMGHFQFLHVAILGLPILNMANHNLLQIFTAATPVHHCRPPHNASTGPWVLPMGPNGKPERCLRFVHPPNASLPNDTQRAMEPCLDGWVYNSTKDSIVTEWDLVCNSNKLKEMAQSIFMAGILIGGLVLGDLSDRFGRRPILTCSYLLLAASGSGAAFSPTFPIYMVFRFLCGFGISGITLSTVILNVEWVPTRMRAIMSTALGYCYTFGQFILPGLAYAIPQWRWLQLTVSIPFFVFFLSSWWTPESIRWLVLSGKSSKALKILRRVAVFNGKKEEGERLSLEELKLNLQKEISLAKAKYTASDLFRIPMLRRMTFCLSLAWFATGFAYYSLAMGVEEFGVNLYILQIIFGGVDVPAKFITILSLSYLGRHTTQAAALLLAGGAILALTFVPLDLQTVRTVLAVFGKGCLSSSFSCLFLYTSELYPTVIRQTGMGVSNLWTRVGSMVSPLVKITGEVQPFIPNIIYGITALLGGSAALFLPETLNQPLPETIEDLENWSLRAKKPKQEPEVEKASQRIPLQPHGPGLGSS

hrCYP1A2 = molecular target: T2, hrCYP1A2 (Homo sapiens, UniProt P05177); assay: CYP reaction phenotyping with hrCYP1A2 (% remaining); assay type: in vitro ADME; details: for % Remaining of TA: hrCYP1A2 20 pmol CYP/mL, 5 μM TA, PB and TUDCA co-incubated
T2 sequence (P05177 1-516): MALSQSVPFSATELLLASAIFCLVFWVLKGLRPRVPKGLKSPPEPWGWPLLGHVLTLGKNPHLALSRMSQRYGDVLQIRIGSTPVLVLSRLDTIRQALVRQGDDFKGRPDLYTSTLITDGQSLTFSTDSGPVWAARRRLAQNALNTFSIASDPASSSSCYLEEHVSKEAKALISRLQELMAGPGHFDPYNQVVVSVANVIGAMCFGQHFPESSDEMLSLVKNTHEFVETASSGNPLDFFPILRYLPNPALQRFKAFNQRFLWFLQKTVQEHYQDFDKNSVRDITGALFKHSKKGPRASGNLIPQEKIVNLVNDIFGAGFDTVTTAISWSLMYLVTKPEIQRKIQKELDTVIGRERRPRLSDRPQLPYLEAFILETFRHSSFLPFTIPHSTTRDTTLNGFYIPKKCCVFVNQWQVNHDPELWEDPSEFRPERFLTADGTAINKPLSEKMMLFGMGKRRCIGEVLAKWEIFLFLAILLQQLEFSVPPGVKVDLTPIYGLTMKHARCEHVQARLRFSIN

hrCYP2C8 = molecular target: T3, hrCYP2C8 (Homo sapiens, UniProt P10632); assay: CYP reaction phenotyping with hrCYP2C8 (% remaining); assay type: in vitro ADME; details: for % Remaining of TA: hrCYP2C8 20 pmol CYP/mL, 5 μM TA, PB and TUDCA co-incubated
T3 sequence (P10632 1-490): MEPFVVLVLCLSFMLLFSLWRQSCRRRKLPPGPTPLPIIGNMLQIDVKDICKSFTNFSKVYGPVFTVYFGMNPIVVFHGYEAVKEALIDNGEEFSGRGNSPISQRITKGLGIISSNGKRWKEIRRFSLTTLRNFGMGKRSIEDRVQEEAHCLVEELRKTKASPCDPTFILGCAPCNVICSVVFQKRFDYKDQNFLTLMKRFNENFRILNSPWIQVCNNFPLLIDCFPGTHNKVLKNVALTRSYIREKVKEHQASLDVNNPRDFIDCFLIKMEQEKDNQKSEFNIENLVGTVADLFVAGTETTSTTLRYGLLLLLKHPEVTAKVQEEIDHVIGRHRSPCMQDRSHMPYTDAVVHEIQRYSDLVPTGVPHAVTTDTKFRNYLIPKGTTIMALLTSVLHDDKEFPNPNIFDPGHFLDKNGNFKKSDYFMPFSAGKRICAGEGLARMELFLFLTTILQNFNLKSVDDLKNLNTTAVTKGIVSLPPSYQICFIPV

hrCYP2C9 = hrCYP2C9 (Homo sapiens, UniProt P11712); assay: CYP reaction phenotyping with hrCYP2C9 (% remaining); assay type: in vitro ADME; details: for % Remaining of TA: hrCYP2C9 20 pmol CYP/mL, 5 μM TA, PB and TUDCA co-incubated
[1] = Chemical stability in HBSSg_7.4 and HBSS_8.5; assay type: physicochemical; details: for Chemical stability in the tested matrices: 0.5 μM, 37° C., HBSSg_7.4 and HBSS_8.5
Procedure: At pre-determined time points, an equal volume of acetonitrile with internal standard was added to each vial, and the mixture was placed at 4° C. until the end of the assay. The peak areas of the test article and IS of each sample were determined by LC-MS/MS, and the ratios of the peak areas (analyte:IS) were calculated.

OAT1 = molecular target: T4, OAT1 (Homo sapiens, UniProt Q4U2R8); assay: in vitro
T4 sequence (Q4U2R8 1-563): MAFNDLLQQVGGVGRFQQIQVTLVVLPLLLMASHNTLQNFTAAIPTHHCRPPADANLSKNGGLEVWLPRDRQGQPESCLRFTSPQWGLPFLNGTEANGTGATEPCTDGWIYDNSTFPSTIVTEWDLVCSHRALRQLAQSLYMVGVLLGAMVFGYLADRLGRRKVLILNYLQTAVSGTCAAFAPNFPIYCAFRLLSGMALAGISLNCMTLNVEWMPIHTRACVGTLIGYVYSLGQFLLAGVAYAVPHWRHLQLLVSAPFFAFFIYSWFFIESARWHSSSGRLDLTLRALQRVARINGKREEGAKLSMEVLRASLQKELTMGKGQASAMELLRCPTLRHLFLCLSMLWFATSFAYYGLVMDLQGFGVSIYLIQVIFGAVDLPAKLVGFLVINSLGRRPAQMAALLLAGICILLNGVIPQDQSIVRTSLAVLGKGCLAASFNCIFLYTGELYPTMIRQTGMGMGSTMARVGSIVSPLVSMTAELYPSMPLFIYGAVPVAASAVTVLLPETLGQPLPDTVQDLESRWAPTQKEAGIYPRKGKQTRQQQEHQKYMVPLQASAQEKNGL

[2] = Solubility assessment in HBSSg_7.4 and HBSSg_8.5; details: for Measured Concentration / Percent of the Nominal Concentration: replicates 1-3
[3] = HBSSg_7.4, Overnight (~1020-[…])
[4] = HBSSg_8.5, Overnight (~1020-[…])
[5] = HBSSg_7.4, target 8005 μM TUDCA, 64447 μM PB
[6] = HBSSg_8.5, target 810 μM TUDCA, 73927 μM PB

Sequence of hrCYP2C9 (P11712 whole entry): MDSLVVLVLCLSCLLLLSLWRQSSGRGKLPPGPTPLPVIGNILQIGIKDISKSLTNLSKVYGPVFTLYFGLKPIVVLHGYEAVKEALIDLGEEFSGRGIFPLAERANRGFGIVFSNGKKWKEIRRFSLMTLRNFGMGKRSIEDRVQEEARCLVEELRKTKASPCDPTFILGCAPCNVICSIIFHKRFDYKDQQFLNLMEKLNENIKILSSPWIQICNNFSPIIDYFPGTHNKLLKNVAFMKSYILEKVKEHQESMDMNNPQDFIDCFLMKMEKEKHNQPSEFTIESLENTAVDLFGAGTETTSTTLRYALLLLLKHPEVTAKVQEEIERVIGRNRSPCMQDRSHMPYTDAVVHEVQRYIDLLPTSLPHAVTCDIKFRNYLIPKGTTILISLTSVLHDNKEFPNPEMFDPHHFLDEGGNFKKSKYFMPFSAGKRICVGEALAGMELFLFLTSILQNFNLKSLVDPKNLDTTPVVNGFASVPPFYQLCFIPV

Compound | potency estimated from few doses (OAT3) | Chemical stability in the tested matrices [1] | Percent of the 0-minute value ([1]; HBSSg_7.4, 0 minutes) | Percent of the 0-minute value ([1]; HBSSg_7.4, 120 minutes) | Percent of the 0-minute value [1, 3] | Percent of the 0-minute value ([1]; HBSSg_8.5, 0 minutes) | Percent of the 0-minute value ([1]; HBSSg_8.5, 120 minutes) | Percent of the 0-minute value [1, 4] | potency estimated from few doses (OAT1) | Measured Concentration [2, 5] | Percent of the Nominal Concentration [2, 5] | Measured Concentration [2, 6] | Percent of the Nominal Concentration [2, 6] | also measured
C[C@H](CCC(=O)NCC(=O)O)[C@H]1CC[C@H]2[C@@H]3[C@@H](O)C[C@@H]4C[C@H](O)CC[C@]4(C)[C@H]3CC[C@]12C [Glycoursodeoxycholic acid, glycoursodeoxycholic acid] | < 100 µM |  |  |  |  |  |  |  |  |  |  |  |  | 
O=C(O)CCCc1ccccc1 [PB, sodium phenylbutyrate] | < 25 µM | appeared to be stable | 100% | 99.3% | 105% | 100% | 79.4% | 98.6% | < 25 µM | 52000 µM and 59300 µM and 52800 µM | 80.7% and 92.0% and 81.9% | 62200 µM and 53200 µM and 61100 µM | 84.1% and 72.0% and 82.6% | % remaining after 60 minutes (hrCYP1A2; human, 1 h, 5 µM, pH 7.4): greater than 90%; % remaining after 60 minutes (hrCYP2C8; human, 1 h, 5 µM, pH 7.4): greater than 90%; % remaining after 60 minutes (hrCYP2C9; human, 1 h, 5 µM, pH 7.4): greater than 90%
O=C(O)Cc1ccccc1 [Phenylacetic acid, phenylacetic acid] |  |  |  |  |  |  |  |  | < 750 µM |  |  |  |  | 
tauroursodeoxycholic acid [TUDCA] |  | appeared to be stable | 100% | 101% | 95.3% | 100% | 90.8% | 96.5% |  | 6710 µM and 6950 µM and 6770 µM | 83.8% and 86.8% and 84.6% | 719 μM and 704 μM (2×) | 88.8% and 86.9% (2×) | % Remaining of TA (hrCYP1A2; 0 min): 100%; % Remaining of TA (hrCYP1A2; 5 min): 98.0%; % Remaining of TA (hrCYP1A2; 10 min): 101%; % Remaining of TA (hrCYP1A2; 20 min): 99.9%; % Remaining of TA (hrCYP1A2; 30 min): 103%; % Remaining of TA (hrCYP1A2; 60 min): 90.5%; % Remaining of TA (hrCYP2C8; 0 min): 100%; % Remaining of TA (hrCYP2C8; 5 min): 97.1%; % Remaining of TA (hrCYP2C8; 10 min): 99.3%; % Remaining of TA (hrCYP2C8; 20 min): 101%; % Remaining of TA (hrCYP2C8; 30 min): 101%; % Remaining of TA (hrCYP2C8; 60 min): 99.8%; % Remaining of TA (hrCYP2C9; 0 min): 100%; % Remaining of TA (hrCYP2C9; 5 min): 96.0%; % Remaining of TA (hrCYP2C9; 10 min): 98.8%; % Remaining of TA (hrCYP2C9; 20 min): 98.5%; % Remaining of TA (hrCYP2C9; 30 min): 97.8%; % Remaining of TA (hrCYP2C9; 60 min): 90.3%; Soluble up to target concentration ([2]; HBSSg_7.4, 37° C. overnight): ≥ 8005 µM; Soluble up to target concentration ([2]; HBSSg_8.5, 37° C. overnight): ≥ 810 µM
